Like-named read-outs stand apart in the source and are kept apart here.
Assays:
[1] = pH 7.4; cited from earlier work
[2] = test system: MES-SA; settings: monoculture, PrestoBlue; ref SI2; cited from earlier work
[3] = test system: MES-SA/Dx5; settings: monoculture, ref SI2, cited from earlier work
[4] = test system: A431; parameters: method as in earlier work; settings: monoculture, 72 h, PrestoBlue; ref SI3; cited from earlier work
[5] = test system: A431-B1; parameters: method as in earlier work; settings: monoculture, ref SI3, cited from earlier work
[6] = test system: MES-SA; assay: Cytotoxicity in double coculture, MES-SA mCherry; settings: Homo sapiens, MES-SA, 144 h, read-out: IC50 MES-SA
Protocol: (§5) Therefore, the novel half-sandwich complexes (1–4) and their corresponding ligands were tested against a coculture of MES-SA and MES-SA/Dx5 cells expressing the fluorescent proteins mCherry or eGFP, respectively.[62]
(§6) The tested compounds were dissolved in 50% (v/v) DMSO/PBS’ buffer to prepare 5–10 mM stock solutions, which were diluted in complete culture medium. Constitutive expression of the fluorescent proteins allowed multiplexing in cytotoxicity experiments.[62] […] Serial dilutions of the compounds were added 24 h after seeding. To address the effect of P-gp function, TQ was added at a nontoxic concentration (0.4 μM) 15 min before the test compounds. […] IC50 values and standard deviation were calculated from average pIC50 values from at least 3 independent measurements.

[7] = test system: MES-SA/Dx5; assay: Cytotoxicity in double coculture, MES-SA/Dx5 eGFP; settings: for IC50: Homo sapiens, MES-SA/Dx5, 144 h, read-out: IC50 MES-SA/Dx5; for SR = IC50 (MES-SA)/IC50 (MES-SA/Dx5): double coculture
Protocol: as §5, §6

[8] = test system: MES-SA; assay: Cytotoxicity in triple coculture, MES-SA mCherry; format: cell-based, human; settings: Homo sapiens, MES-SA/B1, MES-SA/Dx5, 144 h
Protocol: (§1) Cell lines were purchased from the American Type Culture Collection (ATCC). MES-SA/B1 is a human MDR1-transfected derivative of MES-SA, and MES-SA mCherry, MES-SA/B1 mOrange, and MES-SA/Dx5 eGFP were engineered to stably express the respective fluorescent proteins previously.[62] Cells were kept in culture medium (DMEM) supplemented with 10% fetal bovine serum, 2 mM L-glutamine, 100 units/mL penicillin, and 100 μg/mL streptomycin (Thermo Fisher). One week before use, MES-SA/Dx5 eGFP cells were treated with 0.5 μM doxorubicin to ensure ABCB1/P-gp expression.
(§2) The tested compounds were dissolved in 50% (v/v) DMSO/PBS’ buffer to prepare 5–10 mM stock solutions, which were diluted in complete culture medium. Constitutive expression of the fluorescent proteins allowed multiplexing in cytotoxicity experiments.[62] Cells were mixed before seeding in 384-well plates: in double cocultures, MES-SA mCherry and MES-SA/Dx5 eGFP cells were seeded at 1250–1250 cells/well (in total 2500 cells/well); while in triple cocultures, MES-SA mCherry, MES-SA/Dx5 eGFP and MES-SA/B1 mOrange cells were seeded at 800–800–800 cells/well (in total 2400 cells/well). Serial dilutions of the compounds were added 24 h after seeding. To address the effect of P-gp function, TQ was added at a nontoxic concentration (0.4 μM) 15 min before the test compounds. The intensity of the fluorescent proteins, which is proportional to cell mass, was measured after 144 h of incubation at the respective fluorescent channels (excitation/emission: eGFP: 485 nm/510 nm; mOrange: 545 nm/567 nm; mCherry: 585 nm/610 nm). pIC50 values were calculated by a custom program written by Judit Sessler in C#.[62] IC50 values and standard deviation were calculated from average pIC50 values from at least 3 independent measurements.

[9] = test system: MES-SA/Dx5; assay: Cytotoxicity in triple coculture, MES-SA/Dx5 eGFP; format: cell-based, human
Protocol: as §1, §2

[10] = test system: Colo205; assay: Cytotoxicity, Colo205; format: cell-based; settings: Homo sapiens, COLO 205; 72 h incubation; this work
Text: (§3) Supplementary Information
(§4) (11 pictures or pasted objects on this page, not shown here)

[11] = test system: Colo320; assay: Cytotoxicity, Colo320; format: cell-based, human; settings: this work
Text: as §3, §4

SMILES	log D7.4 [1]	IC50 [2]	IC50 ([3]; PrestoBlue)	SR (MES-SA / MES-SA/Dx5) ([3]; + 1 µM TQ)	SR (MES-SA / MES-SA/Dx5) [3]	IC50 [4]	IC50 ([5]; 72 h, PrestoBlue)	SR (A431 / A431-B1) [5]	IC50 [6]	IC50 [7]	SR = IC50 (MES-SA)/IC50 (MES-SA/Dx5) ([7]; + 0.4 μM tariquidar (TQ))	SR = IC50 (MES-SA)/IC50 (MES-SA/Dx5) ([7]; without TQ)	IC50 [8]	SR Dx5 = IC50 (MES-SA)/IC50 (MES-SA/Dx5) [9]	IC50 ([9]; Homo sapiens, MES-SA/Dx5, 144 h)	IC50 [10]	IC50 ([11]; Homo sapiens, COLO 320, 72 h incubation)	SR (Colo205 / Colo320) [11]
Oc1c(CN2CCCCC2)ccc2cccnc12 [PHQ, 7-(1-piperidinylmethyl)quinolin-8-ol, reference compound]	+0.93	3.63 ± 0.58 µM	0.62 ± 0.03 µM	0.92	5.85	10.1 ± 2.95 µM	2.48 ± 0.7 µM	4.09	3.8 µM	0.49 µM	1.8	7.8	–	–	–	–	–	–
COc1cccc2c1C(=O)c1c(O)c3c(c(O)c1C2=O)C[C@@](O)(C(=O)CO)C[C@@H]3O[C@H]1C[C@H](N)[C@H](O)[C@H](C)O1 [doxorubicin, reference compound]	–	–	–	–	–	–	–	–	0.03 µM	2.62 µM	1.3	0.01	0.03 µM	0.03	1.07 µM	0.05 ± 0.01 µM	0.19 ± 0.02 µM	0.3
